The record followed here is patent US20100204219A1, “AROMATIC 1,4-DI-CARBOXYLAMIDES AND THEIR USE” (priority 2006, published 2010).

pIC50: −log10 of the molar value.

What all share (assay type): binding
Details in all cases: Example 1

Experiment [1] addresses T1, βCat-ECad (E-Cadherin-βCatenin interaction) (Homo sapiens, UniProt P35222).
T1 sequence (P35222 134-671 limits assumed): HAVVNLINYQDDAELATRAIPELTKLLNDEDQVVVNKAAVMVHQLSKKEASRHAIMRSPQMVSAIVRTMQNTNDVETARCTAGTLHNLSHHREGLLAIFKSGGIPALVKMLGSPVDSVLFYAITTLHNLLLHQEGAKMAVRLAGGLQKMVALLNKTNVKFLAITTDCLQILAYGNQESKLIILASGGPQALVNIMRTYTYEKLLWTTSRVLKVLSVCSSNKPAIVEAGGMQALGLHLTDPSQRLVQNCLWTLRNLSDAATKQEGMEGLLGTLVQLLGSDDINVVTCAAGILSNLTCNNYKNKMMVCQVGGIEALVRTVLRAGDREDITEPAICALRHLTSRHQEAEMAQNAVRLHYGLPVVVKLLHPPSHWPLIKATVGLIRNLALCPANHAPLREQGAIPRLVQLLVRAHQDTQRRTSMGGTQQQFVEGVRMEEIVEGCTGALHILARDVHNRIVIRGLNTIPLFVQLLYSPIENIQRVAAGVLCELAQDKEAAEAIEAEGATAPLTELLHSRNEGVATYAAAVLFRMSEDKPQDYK
Nature of the experiment: ELISA based protein-protein interaction assay, βCat-ECad. From the text: (§1) cDNAs including the binding domains of Lgs and beta-Catenin were fused down-stream of glutathione-S-transferase (GST) cDNA in pGEX-4T inducible bacterial expression vector (Pharmacia). Similar recombinant DNA constructs were generated in the pET-32a(+) vector (Novagen) for expression of fusion protein containing the Thioredoxine-6His tag at their N-terminus. Fusion proteins were produced in BL21 bacteria (e.g. Stratagene) following manufacturer's recommendation.
(§2) To isolate the produced fusions protein, bacteria were ground in aluminum oxide (Sigma, A2039) and the resulting powder extracted in lysis buffer (140 mM NaCl, 10 mM Na2HPO4, 1.8 mM KH2PO4, 2.7 mM KCl, 1 mM EDTA, 1% Triton-X-100, 1 mM DTT and protease inhibitors) under rotation for 30 minutes. Supernatants were cleared by centrifugation then filtered on a 0.45 μm membrane before protein purification. For GST tagged protein, lysate were processed on glutathione agarose beads following manufacturer's recommendation (Amersham Pharmacia) and purified proteins eluted in 50 mM Tris-Cl, 10 mM reduced glutathione pH8.0. For thioredoxine-6His fusions, tagged proteins were purified from the lysate on a nickel chelating column (e.g. Hitrap chelating, G.E. Healthcare) using an HPLC system (e.g. Akta Prime, G.E. Healthcare) and eluted under increasing concentration of imidazole. The purified proteins solution was dialyzed against PBS before use. The quality of the preparations was checked by SDS-gel electrophoresis by standard methods well known by persons skilled in the art.
(§3) Compound preparation: Compounds can be prepared as 25 mM stock in DMSO and diluted in DMSO to reach final test concentrations of up to 100 μM. Final DMSO concentration in the assay is 5%.
(§4) 100 μl of GST fusion protein (e.g. GST-βCatenin) diluted to the appropriate concentration in phosphate buffer saline are added per well to a 96 well plate with high protein binding capacity (e.g. Nunc Maxisorp) and placed at 4° C. overnight. The following day the liquid in the wells is discarded and 150 μl 3% bovine serum albumin (BSA) in PBS are added to each well and incubated at room temperature for 2 hours under moderate shaking. This solution is then discarded and each well washed twice with 200 μl PBS. After carefully discarding the second wash, a mixture of 5 μl compound dilution and 95 μl 6His fusion protein (e.g. 6His-Bcl9) diluted to the appropriate concentration in PBS is added to each well. The plate is then incubated for 1 hour at room temperature under moderate shaking. This protein solution is then discarded and the wells washed 3 times with 200 μl 0.1% Tween-20 solution in PBS. After carefully discarding the final wash, 100 μl of anti 6His antibody conjugated to the horse-radish peroxidase (e.g. Roche antibody 11965085001) at the appropriate dilution in 1% BSA in PBS is added to the wells and the plate incubated for 1 hour at room temperature under moderate shaking. This solution is then discarded and the wells washed 3 times with 200 μl 0.1% Tween-20 solution in PBS. After carefully discarding the final wash, 100 μl of HRP substrate […] (TMB) in solution (e.g. Sigma T0440) is added to the wells and the plate incubated up to 30 minutes in the dark at room temperature. The reaction is stopped by addition of 100 μl of 2N HCl to each well and the optical density is measured at 450 nm and 630 nm.
On the technique in general: In an ELISA, binding on a coated surface is turned into a signal by an enzyme label.

Experiment [2] deals with T2, βCat-TCF4 (Tcf-4-βCatenin interaction) (Homo sapiens, UniProt P35222).
T2 sequence (P35222 141-664 limits assumed): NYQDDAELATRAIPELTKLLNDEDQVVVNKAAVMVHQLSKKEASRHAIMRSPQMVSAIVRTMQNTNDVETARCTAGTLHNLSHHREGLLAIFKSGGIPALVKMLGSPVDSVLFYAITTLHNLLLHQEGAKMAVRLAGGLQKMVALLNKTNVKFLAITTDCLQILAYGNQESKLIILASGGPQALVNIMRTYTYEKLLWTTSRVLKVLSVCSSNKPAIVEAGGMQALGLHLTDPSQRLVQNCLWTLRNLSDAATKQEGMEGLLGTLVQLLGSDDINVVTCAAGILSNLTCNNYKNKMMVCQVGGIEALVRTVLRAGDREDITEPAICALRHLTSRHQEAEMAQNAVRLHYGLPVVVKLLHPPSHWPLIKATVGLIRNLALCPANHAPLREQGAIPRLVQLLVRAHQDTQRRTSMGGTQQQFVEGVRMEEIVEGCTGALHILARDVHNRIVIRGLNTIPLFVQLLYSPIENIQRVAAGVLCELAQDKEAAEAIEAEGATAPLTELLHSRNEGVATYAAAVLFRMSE
Nature of the experiment: ELISA based protein-protein interaction assay, βCat-TCF4.
Description: as §1, §2, §3, §4

Experiment [3] concerns the target T3, βCat-BCL9 (beta-Catenin/BCL9-BCL9L interaction) (Homo sapiens, UniProt P35222).
T3 sequence (P35222 1-781): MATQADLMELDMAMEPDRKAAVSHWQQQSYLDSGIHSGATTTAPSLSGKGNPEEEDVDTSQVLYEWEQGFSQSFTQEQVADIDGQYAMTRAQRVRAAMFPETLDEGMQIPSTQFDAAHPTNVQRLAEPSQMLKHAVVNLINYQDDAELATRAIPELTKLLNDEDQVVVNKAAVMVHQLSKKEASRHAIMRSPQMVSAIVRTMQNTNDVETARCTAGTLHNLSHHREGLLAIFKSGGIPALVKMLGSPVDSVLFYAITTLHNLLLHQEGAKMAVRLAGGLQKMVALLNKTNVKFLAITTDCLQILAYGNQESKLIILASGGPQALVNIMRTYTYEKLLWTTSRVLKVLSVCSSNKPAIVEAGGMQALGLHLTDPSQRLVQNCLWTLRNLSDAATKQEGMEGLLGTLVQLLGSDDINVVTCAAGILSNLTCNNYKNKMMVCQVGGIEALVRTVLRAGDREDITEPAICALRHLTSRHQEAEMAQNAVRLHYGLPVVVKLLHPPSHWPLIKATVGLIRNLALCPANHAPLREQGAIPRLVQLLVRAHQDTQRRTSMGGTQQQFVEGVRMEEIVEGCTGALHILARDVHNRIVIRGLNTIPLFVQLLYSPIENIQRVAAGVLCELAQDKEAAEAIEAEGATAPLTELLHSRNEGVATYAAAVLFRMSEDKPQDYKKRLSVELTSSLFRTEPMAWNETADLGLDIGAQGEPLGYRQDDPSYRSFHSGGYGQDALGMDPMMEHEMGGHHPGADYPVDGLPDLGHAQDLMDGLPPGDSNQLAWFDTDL
Nature of the experiment: ELISA based protein-protein interaction assay, βCat-BCL9.
Description: as §1, §2, §3, §4

Broadly, the pIC50 is the IC50 on a negative log10 scale, so that one unit is a factor of ten. On to `COC(=O)c1ccc(NC(=O)c2ccc(C(=O)Nc3ccc(C(=O)OC)cc3)nc2)cc1` [TGC0011288], for which the values for the pIC50 in experiment [1], in experiment [2] and in experiment [3] were less than 5.00, less than 5.00 and 5.70, respectively.
`COc1cccc(NC(=O)c2ccc(C(=O)Nc3cccc(OC)c3)nc2)c1` [TGC0011280]: the negative logarithm of the IC50 (pIC50) in experiment [1] is 4.68; in experiment [2], 4.64; in experiment [3], less than 4.00.
Turning to `COC(=O)c1ccc(NC(=O)c2ccc(C(=O)Nc3ccc(C(=O)OC)cc3Cl)nc2)c(Cl)c1` [TGC0011605], the pIC50 in experiment [1] is 4.68; in experiment [2], 4.66; in experiment [3] it was less than 4.30.
Taken in the same sequence, the figures for `COC(=O)c1ccc(NC(=O)c2cc(OC)c(C(=O)Nc3ccc(C(=O)OC)cc3)cc2OC)cc1` [TGC0012302] were less than 4.00, less than 4.00 and 4.03.
For `COc1cccc(C(=O)Nc2ccc(-c3cnc(-c4ccc(NC(=O)c5cccc(OC)c5)cc4)nc3)cc2)c1` [TGC0011528], in that order: less than 4.30, less than 4.30 and less than 4.30.
In the case of `O=C(Nc1ccc2oc(=O)ccc2c1)c1ccc(C(=O)Nc2ccc3oc(=O)ccc3c2)cc1` [TGC0012296], the pIC50 was less than 5.00 in experiment [1], less than 5.00 in experiment [2] and 5.52 in experiment [3].
As to `COc1ccc(CCNC(=O)c2ccc(C(=O)NCCc3ccc(OC)c(OC)c3)nc2)cc1OC` [TGC0011342], the pIC50 in experiment [1], in experiment [2] and in experiment [3] was less than 4.30 each time.
Turning to `O=C(NCc1ccc2c(c1)OCO2)c1ccc(C(=O)NCc2ccc3c(c2)OCO3)nc1` [TGC0011430], the negative-log IC50 (pIC50) in experiment [1], in experiment [2] and in experiment [3] was less than 4.30 throughout.
Take `O=C(Nc1cccnc1)c1ccc(C(=O)Nc2cccnc2)nc1` [TGC0011423]: the pIC50 in experiment [1] was less than 4.00; in experiment [2], less than 4.00; in experiment [3], 4.54.
On to `O=C(NCc1ccco1)c1ccc(C(=O)NCc2ccco2)nc1` [TGC0011428], for which the pIC50 in experiment [1], in experiment [2] and in experiment [3] was less than 4.30 each time.
In the case of `CC(=O)c1ccc(NC(=O)c2ccc(C(=O)Nc3ccc(C(C)=O)cc3)nc2)cc1` [TGC0011285], the negative logarithm of the IC50 (pIC50) in experiment [1] is less than 5.00; in experiment [2], less than 5.00; in experiment [3], 5.22.
In experiment [3], `O=C(NCCc1cccc(Cl)c1)c1ccc(C(=O)NCCc2cccc(Cl)c2)nc1` [TGC0011340] had a pIC50 of less than 4.70.
For `CCCC(=O)Nc1ccc(-c2cnc(-c3ccc(NC(=O)CCC)cc3)nc2)cc1` [TGC0011566], the negative-log IC50 (pIC50) is less than 4.00 in experiment [1], less than 4.00 in experiment [2] and 4.17 in experiment [3].
Take `O=C(O)c1ccc(NC(=O)c2ccc(C(=O)Nc3ccc(C(=O)O)cc3)cc2)cc1` [TGC0012290]: in experiment [3], the negative-log IC50 (pIC50) was less than 4.30.
For `COC(=O)c1cc(NC(=O)c2ccc(C(=O)Nc3cc(C(=O)OC)cc(C(=O)OC)c3)nc2)cc(C(=O)OC)c1` [TGC0000160], the pIC50 in experiment [2] was less than 4.00; in experiment [3], 4.42.
Consider `Cc1nnc(NC(=O)c2ccc(C(=O)Nc3nnc(C)s3)nc2)s1` [TGC0011344], for which the pIC50 in experiment [1] was 4.38; in experiment [2], 3.92; in experiment [3] it was 4.07.
For `Cc1ccccc1C(=O)Nc1ccc(-c2cnc(-c3ccc(NC(=O)c4ccccc4C)cc3)nc2)cc1` [TGC0011529], the pIC50 in experiment [3] was less than 4.00.
`O=C(Nc1ccc2c(c1)OCO2)c1ccc(C(=O)Nc2ccc3c(c2)OCO3)nc1` [TGC0011431] gave a pIC50 in experiment [3] of less than 4.30.
Regarding `CC(C)(C)C1CCc2c(sc(NC(=O)c3ccc(C(=O)Nc4sc5c(c4C#N)CCC(C(C)(C)C)C5)nc3)c2C#N)C1` (stereo not drawn) [TGC0011343], the pIC50 in experiment [3] was less than 4.00.
The same measure, in the same setting: with `COc1ccccc1CCNC(=O)c1ccc(C(=O)NCCc2ccccc2OC)nc1` [TGC0011445] the figure was less than 5.00.
The compound `O=C(NCCC1=CCCCC1)c1ccc(C(=O)NCCC2=CCCCC2)nc1` [TGC0011435] showed a negative logarithm of the IC50 (pIC50) in experiment [3] of less than 4.30.
`N#Cc1ccc(NC(=O)c2ccc(C(=O)Nc3ccc(C#N)cc3)cc2)cc1` [TGC0012303]: the figures for the negative logarithm of the IC50 (pIC50) in experiment [1], in experiment [2] and in experiment [3] were less than 5.00, less than 5.00 and 5.30, respectively.
For `COc1ccc(CCNC(=O)c2ccc(-c3ccc(C(=O)NCCc4ccc(OC)c(OC)c4)cn3)nc2)cc1OC` [TGC0012281], the pIC50 in experiment [3] was 4.42.
The compound `O=C(Nc1ccccc1)c1ccc(C(=O)Nc2ccccc2)nc1` [TGC0011286] gave a pIC50 in experiment [3] of less than 4.00.
Same read-out and setting: with `COc1ccc(CCNC(=O)c2cnc(C(=O)NCCc3ccc(OC)c(OC)c3)cn2)cc1OC` [TGC0011592] the figure was less than 5.00.
